Data: patent publication US20260198493A1, “HYDRAZIDE COMPOUND AND AGRICULTURAL/HORTICULTURAL FUNGICIDE” (Nippon Soda Co., Ltd., priority 2022, published 2026)

Columns and labels:
Glomerella cingulata = assay: Fungicidal effect test against fungi causing grape ripe rot disease; settings: Colletotrichum gloeosporioides, 72 h, read-out: growth inhibition ratio
Colletotrichum acutatum = assay: Fungicidal effect test against fungi causing apple anthracnose; settings: 96 h, read-out: growth inhibition ratio
Botrytis cinerea [1] = assay: Control test of cucumber gray mold (sprayed young cucumber seedlings); format: in vivo; settings: 96 h, four days after inoculation; for pest or weed control at 25 ppm: 25 ppm by mass spray; for pest or weed control at 125 ppm: 125 ppm by mass spray
Protocol: Then, the drug liquid was sprayed onto young cucumber seedlings cultivated in a nursery pot (variety “Jihai”-based, cotyledon stage), and then air-dried. […] They were left still in a moist room at 20° C. Four days after inoculation, leaves of the young cucumber seedlings were visually observed, and the control value was calculated from the lesion area ratio in accordance with the following equation. [formula]

[2] = tested on: Erysiphe graminis f.sp.tritici; assay: Control test of wheat powdery mildew disease (sprayed young wheat seedlings); format: in vivo; settings: Blumeria graminis, 144 h, 125 ppm by mass spray, six days after inoculation
Venturia inaequalis = assay: Control test of apple scab disease (sprayed young apple seedlings); format: in vivo; settings: 125 ppm by mass spray, 12 to 14 days after inoculation
Botrytis cinerea [3] = format: cell-based; settings: 120 h, 25 ppm by volume, Vogel medium, 20° C., five days, dark, read-out: growth inhibition ratio
Fusarium graminearum = assay: microbe, parasite or virus in culture; format: cell-based; settings: 96 h, read-out: growth inhibition ratio

COC(=O)N(Cc1ccc(OC)cc1C)NC(=O)c1ccncc1Oc1cccc(Br)c1F [b-148]
≥ 75%: inhibition of growth at 25 ppm (Glomerella cingulata) | inhibition of growth at 25 ppm (Colletotrichum acutatum) | pest or weed control at 25 ppm (Botrytis cinerea [1]) | pest or weed control at 125 ppm (Botrytis cinerea [1]) | pest or weed control at 125 ppm [2] | pest or weed control at 125 ppm (Venturia inaequalis) | inhibition of growth at 25 ppm (Botrytis cinerea [3]) | inhibition of growth at 25 ppm (Fusarium graminearum)

COC(=O)N(Cc1ccc(C)cc1C)NC(=O)c1c(C)cncc1Oc1cccc(C2CC2)c1 [b-149]
≥ 75%: inhibition of growth at 25 ppm (Glomerella cingulata) | inhibition of growth at 25 ppm (Colletotrichum acutatum) | pest or weed control at 25 ppm (Botrytis cinerea [1]) | pest or weed control at 125 ppm (Botrytis cinerea [1]) | pest or weed control at 125 ppm [2] | pest or weed control at 125 ppm (Venturia inaequalis) | inhibition of growth at 25 ppm (Botrytis cinerea [3]) | inhibition of growth at 25 ppm (Fusarium graminearum)

COC(=O)N(Cc1ccc(C)cc1C)NC(=O)c1ccncc1Oc1cccc(C2CC2)c1F [b-150]
≥ 75%: inhibition of growth at 25 ppm (Glomerella cingulata) | inhibition of growth at 25 ppm (Colletotrichum acutatum) | pest or weed control at 25 ppm (Botrytis cinerea [1]) | pest or weed control at 125 ppm (Botrytis cinerea [1]) | pest or weed control at 125 ppm [2] | pest or weed control at 125 ppm (Venturia inaequalis) | inhibition of growth at 25 ppm (Botrytis cinerea [3]) | inhibition of growth at 25 ppm (Fusarium graminearum)

COC(=O)N(Cc1ccc(C)cc1C)NC(=O)c1cc(C)nnc1Oc1cccc(F)c1F [b-152]
≥ 75%: inhibition of growth at 25 ppm (Glomerella cingulata) | inhibition of growth at 25 ppm (Colletotrichum acutatum) | pest or weed control at 25 ppm (Botrytis cinerea [1]) | pest or weed control at 125 ppm (Botrytis cinerea [1]) | pest or weed control at 125 ppm [2] | pest or weed control at 125 ppm (Venturia inaequalis) | inhibition of growth at 25 ppm (Botrytis cinerea [3]) | inhibition of growth at 25 ppm (Fusarium graminearum)

COC(=O)N(Cc1ccc(C)cc1OC)NC(=O)c1cc(C)nnc1Oc1cccc(C2CC2)c1F [b-153]
≥ 75%: inhibition of growth at 25 ppm (Glomerella cingulata) | inhibition of growth at 25 ppm (Colletotrichum acutatum) | pest or weed control at 25 ppm (Botrytis cinerea [1]) | pest or weed control at 125 ppm (Botrytis cinerea [1]) | pest or weed control at 125 ppm [2] | pest or weed control at 125 ppm (Venturia inaequalis) | inhibition of growth at 25 ppm (Botrytis cinerea [3]) | inhibition of growth at 25 ppm (Fusarium graminearum)

CCc1cc(C(=O)NN(Cc2ccc(OC)cc2C)C(=O)OC)c(Oc2cccc(C3CC3)c2F)nn1 [b-154]
≥ 75%: inhibition of growth at 25 ppm (Glomerella cingulata) | inhibition of growth at 25 ppm (Colletotrichum acutatum) | pest or weed control at 25 ppm (Botrytis cinerea [1]) | pest or weed control at 125 ppm (Botrytis cinerea [1]) | pest or weed control at 125 ppm [2] | pest or weed control at 125 ppm (Venturia inaequalis) | inhibition of growth at 25 ppm (Botrytis cinerea [3]) | inhibition of growth at 25 ppm (Fusarium graminearum)

COC(=O)N(Cc1ccc(OC)cc1C)NC(=O)c1cc(C)nnc1Oc1cccc(Cl)c1F [b-168]
≥ 75%: inhibition of growth at 25 ppm (Glomerella cingulata) | inhibition of growth at 25 ppm (Colletotrichum acutatum) | pest or weed control at 125 ppm (Botrytis cinerea [1]) | pest or weed control at 125 ppm [2] | pest or weed control at 125 ppm (Venturia inaequalis) | inhibition of growth at 25 ppm (Botrytis cinerea [3]) | inhibition of growth at 25 ppm (Fusarium graminearum)

COC(=O)N(Cc1ccc(C)cc1C)NC(=O)c1cc(Cl)nnc1Oc1cccc(Cl)c1F [b-169]
≥ 75%: inhibition of growth at 25 ppm (Glomerella cingulata) | inhibition of growth at 25 ppm (Colletotrichum acutatum) | pest or weed control at 125 ppm (Botrytis cinerea [1]) | pest or weed control at 125 ppm [2] | pest or weed control at 125 ppm (Venturia inaequalis) | inhibition of growth at 25 ppm (Botrytis cinerea [3]) | inhibition of growth at 25 ppm (Fusarium graminearum)

COC(=O)N(Cc1ccc(OC)cc1C)NC(=O)c1cc(Cl)nnc1Oc1cccc(Cl)c1F [b-170]
≥ 75%: inhibition of growth at 25 ppm (Glomerella cingulata) | inhibition of growth at 25 ppm (Colletotrichum acutatum) | pest or weed control at 125 ppm (Botrytis cinerea [1]) | pest or weed control at 125 ppm [2] | pest or weed control at 125 ppm (Venturia inaequalis) | inhibition of growth at 25 ppm (Botrytis cinerea [3]) | inhibition of growth at 25 ppm (Fusarium graminearum)

COC(=O)N(Cc1ccc(OC)cc1Cl)NC(=O)c1cc(C)nnc1Oc1cccc(C2CC2)c1F [b-171]
≥ 75%: inhibition of growth at 25 ppm (Glomerella cingulata) | inhibition of growth at 25 ppm (Colletotrichum acutatum) | pest or weed control at 25 ppm (Botrytis cinerea [1]) | pest or weed control at 125 ppm (Botrytis cinerea [1]) | pest or weed control at 125 ppm [2] | pest or weed control at 125 ppm (Venturia inaequalis) | inhibition of growth at 25 ppm (Botrytis cinerea [3]) | inhibition of growth at 25 ppm (Fusarium graminearum)

COC(=O)N(Cc1ccc(C)cc1Cl)NC(=O)c1c(Oc2cccc(Cl)c2F)nnc(Cl)c1C [b-176]
≥ 75%: inhibition of growth at 25 ppm (Glomerella cingulata) | inhibition of growth at 25 ppm (Colletotrichum acutatum) | pest or weed control at 25 ppm (Botrytis cinerea [1]) | pest or weed control at 125 ppm (Botrytis cinerea [1]) | pest or weed control at 125 ppm [2] | pest or weed control at 125 ppm (Venturia inaequalis) | inhibition of growth at 25 ppm (Botrytis cinerea [3]) | inhibition of growth at 25 ppm (Fusarium graminearum)

COC(=O)N(Cc1ccc(C)cc1Cl)NC(=O)c1c(C)cnnc1Oc1cccc(C2CC2)c1F [b-177]
≥ 75%: inhibition of growth at 25 ppm (Glomerella cingulata) | inhibition of growth at 25 ppm (Colletotrichum acutatum) | pest or weed control at 25 ppm (Botrytis cinerea [1]) | pest or weed control at 125 ppm (Botrytis cinerea [1]) | pest or weed control at 125 ppm [2] | pest or weed control at 125 ppm (Venturia inaequalis) | inhibition of growth at 25 ppm (Botrytis cinerea [3]) | inhibition of growth at 25 ppm (Fusarium graminearum)

COC(=O)N(Cc1ccc(C)cc1Cl)NC(=O)c1c(C)cncc1Oc1cccc(C2CC2)c1 [b-178]
≥ 75%: inhibition of growth at 25 ppm (Glomerella cingulata) | inhibition of growth at 25 ppm (Colletotrichum acutatum) | pest or weed control at 25 ppm (Botrytis cinerea [1]) | pest or weed control at 125 ppm (Botrytis cinerea [1]) | pest or weed control at 125 ppm [2] | pest or weed control at 125 ppm (Venturia inaequalis) | inhibition of growth at 25 ppm (Botrytis cinerea [3]) | inhibition of growth at 25 ppm (Fusarium graminearum)

Cc1ccc(CN(NC(=O)c2cc(C)nnc2Oc2cccc(C3CC3)c2F)C(=O)OC2CC2)c(C)c1 [b-184, Cyclopropyl 2-(3-(3-cyclopropyl-2-fluorophenoxy)-6-methylpyridazine-4-carbonyl)-1-(2,4-dimethylbenzyl)hydrazine-1-carboxylate]
≥ 75%: inhibition of growth at 25 ppm (Glomerella cingulata) | inhibition of growth at 25 ppm (Colletotrichum acutatum) | pest or weed control at 25 ppm (Botrytis cinerea [1]) | pest or weed control at 125 ppm (Botrytis cinerea [1]) | pest or weed control at 125 ppm [2] | pest or weed control at 125 ppm (Venturia inaequalis) | inhibition of growth at 25 ppm (Botrytis cinerea [3]) | inhibition of growth at 25 ppm (Fusarium graminearum)

COC(=O)N(Cc1ccc(C)cc1C)NC(=O)c1ccncc1Oc1cccc(Cl)c1F [b-187]
≥ 75%: inhibition of growth at 25 ppm (Glomerella cingulata) | inhibition of growth at 25 ppm (Colletotrichum acutatum) | pest or weed control at 25 ppm (Botrytis cinerea [1]) | pest or weed control at 125 ppm (Botrytis cinerea [1]) | pest or weed control at 125 ppm [2] | pest or weed control at 125 ppm (Venturia inaequalis) | inhibition of growth at 25 ppm (Botrytis cinerea [3]) | inhibition of growth at 25 ppm (Fusarium graminearum)

COC(=O)N(Cc1ccc(C)cc1C)NC(=O)c1c(C)cnnc1Oc1cccc(Cl)c1F [b-191]
≥ 75%: inhibition of growth at 25 ppm (Glomerella cingulata) | inhibition of growth at 25 ppm (Colletotrichum acutatum) | pest or weed control at 25 ppm (Botrytis cinerea [1]) | pest or weed control at 125 ppm (Botrytis cinerea [1]) | pest or weed control at 125 ppm [2] | pest or weed control at 125 ppm (Venturia inaequalis) | inhibition of growth at 25 ppm (Botrytis cinerea [3]) | inhibition of growth at 25 ppm (Fusarium graminearum)

Cc1ccc(CN(NC(=O)c2ccncc2Oc2cccc(C3CC3)c2F)C(=O)OC2COC2)c(C)c1 [b-196]
≥ 75%: inhibition of growth at 25 ppm (Glomerella cingulata) | inhibition of growth at 25 ppm (Colletotrichum acutatum) | pest or weed control at 25 ppm (Botrytis cinerea [1]) | pest or weed control at 125 ppm (Botrytis cinerea [1]) | pest or weed control at 125 ppm [2] | pest or weed control at 125 ppm (Venturia inaequalis) | inhibition of growth at 25 ppm (Botrytis cinerea [3]) | inhibition of growth at 25 ppm (Fusarium graminearum)

COC(=O)N(Cc1ccc(C)cc1C)NC(=O)c1c(F)cncc1Oc1cccc(C2CC2)c1F [b-199]
≥ 75%: inhibition of growth at 25 ppm (Glomerella cingulata) | inhibition of growth at 25 ppm (Colletotrichum acutatum) | pest or weed control at 25 ppm (Botrytis cinerea [1]) | pest or weed control at 125 ppm (Botrytis cinerea [1]) | pest or weed control at 125 ppm [2] | pest or weed control at 125 ppm (Venturia inaequalis) | inhibition of growth at 25 ppm (Botrytis cinerea [3]) | inhibition of growth at 25 ppm (Fusarium graminearum)

COC(=O)N(Cc1ccc(OC)cc1C)NC(=O)c1c(F)cncc1Oc1cccc(Cl)c1F [b-202]
≥ 75%: inhibition of growth at 25 ppm (Glomerella cingulata) | inhibition of growth at 25 ppm (Colletotrichum acutatum) | pest or weed control at 25 ppm (Botrytis cinerea [1]) | pest or weed control at 125 ppm (Botrytis cinerea [1]) | pest or weed control at 125 ppm [2] | pest or weed control at 125 ppm (Venturia inaequalis) | inhibition of growth at 25 ppm (Botrytis cinerea [3]) | inhibition of growth at 25 ppm (Fusarium graminearum)
